Measured values as given in patent US20240059685A1, “PIEZO1 AGONISTS FOR THE PROMOTION OF BONE FORMATION” (BIOVENTURES, LLC, priority 2019, published 2024).
“Also recorded” adds a separate entry of the source.

How the values were obtained:
[1] = system: calvaria cells; test: Oxygen consumption rate and ATP production (seahorse) in wildtype and Piezo1 knockout calvaria cells; format: cell-based; conditions: 10 μM, 1 hour; for changes in mitochondrial oxygen consumption rate in cells lacking Piezo1 / increases in ATP production in Piezo1 knockout cells: Piezo1 knockout calvaria cells
Procedure: To determine whether activation of Piezo1 by Yoda1 or YW-3-170 is associated with increased mitochondrial function, we measured oxygen consumption rate and ATP production in calvaria cells treated by Yoda1 or YW-3-170. Wildtype and Piezo1 knockout calvarial cells were cultured in α-MEM medium supplemented with 10% fetal bovine serum and treated with 10 μM Yoda1 or YW-3-170 for 1 hour. Oxygen consumption rate and ATP production were measured using seahorse. […] Importantly, these increases were diminished in Piezo1 knockout cells.

[2] = system: MLO-Y4 cells; test: ATP production in MLO-Y4 cells; format: cell-based, murine; conditions: 30 minutes, different doses
[3] = system: calvaria cells; test: Mitochondria staining (MitoBright dye) in wildtype and Piezo1 knockout calvaria cells; format: cell-based; conditions: 10 μM, 24 hours; for increases in mitochondria staining in Piezo1 knockout cells: Piezo1 knockout calvaria cells; for mitochondria staining: wildtype calvaria cells
Procedure: Next, we determined whether Yoda1 or YW-3-170 increase mitochondria number in primary calvaria cells. Wildtype and Piezo1 knockout calvarial cells were treated with 10 μM Yoda1 or YW-3-170 for 24 hours and then were stained for Mitochondria using MitoBright dye. […] However, these increases were blunted in Piezo1 knockout cells. […] The fluorescence intensity was quantified using the ImageJ software.

[4] = system: C57BL/6J mice; test: In vivo bone mass evaluation by μCT and body weight after 2 weeks of administration; conditions: 4-month-old female C57BL/6J mice, 5 μmol/kg intraperitoneally, 5 days per week for 2 weeks
Procedure: To quantify cancellous bone formation, we injected mice with calcein (20 mg/kg body weight) intraperitoneally 7 and 3 days before harvest. To quantify periosteal and endocortical bone formation, we injected mice with calcein (20 mg/kg body weight) and Alizarin Red (20 mg/kg body weight) 10 and 3 days before harvest. For gene expression, we injected Yoda1 into 4-month-old female C57BL/6J mice one time and harvested tibiae 4 hours later for RNA extraction. For bone mass evaluation, we injected Yoda1 into 4-month-old female C57BL/6J mice 5 consecutive days per week for 2 weeks (day 1-5 and day 8-12) and harvested the mice at day 15 for analysis. Yoda1 (Sigma, St. Louis, MO) was dissolved in DMSO at 40 mM as a stock, diluted in 5% ethanol, and injected intraperitoneally at 5 μmol/kg body weight. Mice were rank-ordered by body weight and then assigned to Veh or Yoda1 groups to give identical group means. All investigators involved in data collection were blinded as to the genotype and group of the mice.
Skeletal analysis. Tibial X-rays were obtained using an UltraFocus X-ray machine (Faxitron Bioptics, Tucson, Arizona) and BMD of the lumbar spine and femur were measured by dual-energy X-ray absorptiometry using a PIXImus Densitometer (GE-Lunar Corp.) Three dimensional bone volume and architecture of L4 vertebra, femur, and tibia were measured by μCT (model μCT40, Scanco Medical, Wayne, PA). The femur, vertebrae (L4), or tibia, were cleaned of soft tissues and fixed in 10% Millonig's formalin for 24 hours. Bone were then gradually dehydrated into 100% ethanol. Bone samples were loaded into a 12.3 mm diameter scanning tube and images acquired in the μCT40. The scans were integrated into 3D voxel images (1024×1024 pixel matrices for each individual planar stack) and a Gaussian filter (sigma=0.8, support=1) was used to reduce signal noise. Scanco Eval Program v.6.0 was used for measuring bone volume. A threshold of 220 mg/cm^3 was applied to all scans at medium resolution (E=55 kVp, I=145 μA, integration time=200 ms) for trabecular bone measurements. The cortical bone and the primary spongiosa were manually excluded from the analysis. Trabecular bone measurements at the distal femur were made on 151 slices beginning 8-10 slices away from the growth plate and proceeding proximally. […] All trabecular measurements were made by drawing contours every 10 to 20 slices and voxel counting was used for bone volume per tissue volume and sphere filling distance transformation indices, without pre-assumptions about the bone shape as a rod or plate for trabecular microarchitecture. Femoral cortical thickness, periosteal circumference, and endocortical circumference were measured at the mid-diaphysis. For tibial cortical thickness, we analyzed 18 slices 5 mm proximal from the distal tibiofibular junction. Vertebral cortical bone thickness was determined on the ventral cortical wall using contours of cross-sectional images, drawn to exclude trabecular bone. Cortical analysis were measured at a threshold of 260 mg/cm^3. Calibration and quality control were performed weekly using five density standards and spatial resolution was verified monthly using a tungsten wire rod. We based beam-hardening correction on the calibration records. Corrections for 200 mg hydroxyapatite were made for all energies.

[5] = system: femoral cortical bone; test: Ex vivo femoral cortical bone organ culture, qPCR; format: cell-based; conditions: cortical bone organ culture from 5-week-old mice, 10 μM, 4 hours, vs DMSO
Procedure: Femoral organ culture. Female mice at 5 weeks of age were euthanized in a CO2 chamber. Femurs were dissected and both ends were removed in a culture hood. Bone marrow was then flushed out using PBS and the periosteal surface was scraped to remove periosteal cells. Femoral shafts were then cultured in a 12-well-plate with 1 ml of α-MEM supplemented with 10% FBS and 1% penicillin/streptomycin/glutamine for 24 hours. We then treated femur shafts with 10 μM Yoda1 (Sigma, St. Louis, MO) or DMSO for 4 hours. Femur shafts were then collected for RNA isolation and qPCR analysis. Ex vivo femoral organ culture was repeated twice with three biological replicates.
Quantitative PCR. Organs and whole bones were harvested from animals, removed of soft tissues, and stored immediately in liquid nitrogen. We prepared osteocyte-enriched bone by removing the ends of femurs and tibias and then flushing the bone marrow with PBS. We then scraped the bone surface with a scalpel and froze them in liquid nitrogen for later RNA isolation, or decalcified them for genomic DNA isolation. We isolated total RNA using TRIzol (Life technologies, NY), according to the manufacturer's instructions and prepared cDNA using High Capacity first strand cDNA synthesis kit (Life Technologies). We performed quantitative RT-PCR using the following Taqman assays from Applied Biosystems: Piezo1 (Mm01241549_m1); Piezo2 (Mm01265861_m1); Ptgs2 (Mm00478374_m1); Cyr61 (Mm00487498_m1); Wnt1 (Mm01300-555_g1); Yap1 (Mm011432-63_m1); Taz (Mm01289583_m1); Tnfsf11 Mm00441906_m1; Tnfrsf11b (Mm00435452_m1); Sost (Mm00470479_m1); and ribosomal protein S2 (Mrps2) (Mm00475529_m1). We calculated relative mRNA amounts using the ΔCt method (Livak and Schmittgen, 2001). We isolated genomic DNA from decalcified cortical bone after digestion with proteinase K and phenol/chloroform extraction. We obtained two custom Taqman assays from Applied Biosystems for quantifying Piezo1 gene deletion efficiency: one specific for sequences between the loxP sites and the other specific for sequences downstream from the 3′ loxP site.

Fc1ccc(Cl)c(CSc2nnc(-c3cnccn3)s2)c1Cl [YW-3-170]
changes in mitochondrial oxygen consumption rate in cells lacking Piezo1 [1]: significantly blunted
increases in ATP production in Piezo1 knockout cells [1]: diminished
ATP production ([1]; wildtype calvaria cells): increase
ATP production compared with Yoda1 ([1]; wildtype calvaria cells): more ATP production than Yoda1
mitochondrial oxygen consumption rate at basal level as well as stimulated level ([1]; wildtype calvaria cells): increased
mitochondrial oxygen consumption rate at basal level as well as stimulated level ([1]; wildtype calvaria cells, listed as 170): increase
ATP production [2]: increased ATP production in MLO-Y4 cells in a dose-dependent manner
increases in mitochondria staining in Piezo1 knockout cells ([3]; listed as 170): requires Piezo1
increases in mitochondria staining in Piezo1 knockout cells ([3]; listed as compound I): blunted
stimulation of mitochondria staining compared with Yoda1 ([3]; calvaria cells): more potent stimulation of mitochondria staining than Yoda1
mitochondria staining ([3]; listed as 170): increase
mitochondria staining ([3]; listed as compound I): increased

Clc1cccc(Cl)c1CSc1nnc(-c2cnccn2)s1 [Yoda1]
changes in mitochondrial oxygen consumption rate in cells lacking Piezo1 [1]: significantly blunted
increases in ATP production in Piezo1 knockout cells [1]: diminished
ATP production ([1]; wildtype calvaria cells): stimulated; also recorded: increase
mitochondrial oxygen consumption rate at basal level as well as stimulated level ([1]; wildtype calvaria cells): increase
body weight [4]: did not alter
cancellous bone mass in the distal femur [4]: increased
cancellous bone volume in vertebrae [4]: did not detect changes
cortical thickness in the distal femur [4]: increased
cortical thickness in the vertebra [4]: increased
ATP production [2]: increased ATP production in MLO-Y4 cells in a dose-dependent manner
Cyr61 expression [5]: promoted expression
Ptgs2 expression [5]: promoted expression
Sost expression [5]: decreased
Tnfrsf11b expression [5]: promoted expression
Wnt1 expression [5]: promoted expression
increases in mitochondria staining in Piezo1 knockout cells [3]: blunted; also recorded: requires Piezo1
mitochondria staining [3]: increase
